In US20060141029A1, “Methods and compositions for delivery of catecholic butanes for treatment of diseases” (priority 2003, published 2006):

Legend:
[1] = system: HPV-16 transformed immortal mouse epithelial cells (C3); conditions: cited from earlier work; for tumor growth: intratumor injection, separately or together, C3 tumors in mice
[2] = system: refractory head and neck carcinomas
Procedure: All patients were diagnosed with refractory head and neck carcinomas.
Nine (9) subjects were dosed with an intratumoral dose of M4N given weekly for three weeks, at doses of 5 mg/cm^3 tumor volume (2 subjects), 10 mg/cm^3 (2 subjects) 15 mg/cm^3 (3 subjects) and 20 mg/cm^3 (2 subjects). Doses up to 495 mg weekly for three weeks were administered.

[3] = dog, in vivo, iv
Procedure: In this example the Maximal Tolerable Dose (MTD) of Dimethyl Sulfoxide (DMSO)] to male and female Beagle Dogs was determined.
Thus the M4N-DMSO group animals were administered with M4N-DMSO with eight intravenous injections via the non-VAP jugular vein every 30 minutes over a 4-hour period. This frequency of delivery mimicked the delivery of the test article using the infusion pump.
The dogs in the DMSO group were observed throughout the jugular vein injection period and for at least one hour following the last (eighth) injection.

head and neck cancer = assay: ex-US clinical study, daily M4N with or without G4N followed by surgical resection; type: in vivo, humans
[4] = Toxicokinetic (TK) analysis of M4N serum concentration in dogs; type: in vivo, Beagle Dogs; conditions: DMSO vehicle, doses up to 100 mg/kg
Procedure: Blood samples from the DMSO group animals were collected via the cephalic vein on SD 1, SD 3, SD 6, and SD 8 at the following timepoints: predose, 0.25, 0.5, 1, 2, 4, 8, and 16 hours following the final injection dose of M4N-DMSO. Blood samples collected from the animals were processed for plasma and serum for TK analysis.
The plasma and serum samples were sent to MedTox Laboratories, the Sponsor's designated laboratory for TK analysis. TK analysis of M4N plasma and serum concentration-time data was performed using a validated method (M200406) by MedTox Laboratories and analyzed by noncompartmental methods to obtain estimates of toxicokinetic parameters (where data allow), but not necessarily limited to, Cmax, Tmax and AUC.

[5] = DMSO; cited from earlier work
[6] = rodents; cited from earlier work
[7] = system: mammary carcinoma MX-1 xenograft; conditions: intratumoral single dose or topical application, athymic mice; cited from earlier work
[8] = in vivo; cited from earlier work
fAβ(1-42) = target: T1, fAβ(1-42) (Homo sapiens, UniProt P05067); conditions: within a few hours at pH 7.5 at 37° C.; cited from earlier work
T1 construct: fAβ(1-42) within a few hours at pH 7.5
T1 sequence (P05067 672-713 limits assumed): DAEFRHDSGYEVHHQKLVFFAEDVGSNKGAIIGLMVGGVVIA

fAβ(1-40) = target: T2, fAβ(1-40) (Homo sapiens, UniProt P05067); conditions: within a few hours at pH 7.5 at 37° C.; cited from earlier work
T2 construct: broke down fAβ(1-40)
T2 sequence (P05067 672-711 limits assumed): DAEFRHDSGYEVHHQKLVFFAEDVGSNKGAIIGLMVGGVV

β-amyloid fibrils = conditions: in vitro; cited from earlier work
Solubility = type: physicochemical

Structure (SMILES): COc1ccc(C[C@@H](C)[C@@H](C)Cc2ccc(OC)c(OC)c2)cc1OC [M4N, meso-1,4-bis(3,4-dimethoxyphenyl)-2,3-dimethylbutane]
- penetration of tumor tissues ([1]; composition of M4N in DMSO injected into the tumor): penetrate most but not all of the tumor tissues
- tumor growth [1]: some evidence of suppression of tumor growth
- damage to healthy tissue surrounding the tumor ([2]; in vivo): No damage
- dose delivered without drug-related toxicity ([2]; in vivo): up to 495 mg
- dosing related adverse events ([2]; in vivo): mild or moderate pain on injection
- hematology parameters ([2]; in vivo): No changes attributable to drug
- liver function tests (LFTs) ([2]; in vivo): Sporadic, and non-reproducible mild elevations
- number of Serious Adverse Events (SAE) ([2]; in vivo): 6
- relation of SAEs to study medication ([2]; in vivo): unlikely or not related to study medication
- tolerability of dosing ([2]; in vivo): generally well tolerated
- patients with radiologically confirmed tumor volume reduction ([2]; patients completing three doses): three of the six
- efficacy in terms of induction of necrosis ([2]; patients that completed the treatment, weekly escalating doses): over 80%
- subjects with drug related tumor necrosis after injection ([2]; subjects receiving three doses): 5 of 6
- dose safely administered [3]: up to 100 mg/kg
- dosage delivered without drug-related toxicity (head and neck cancer; for up to five days, with or without G4N 20 mg per day): 20 mg per day
- patients remaining disease free (head and neck cancer; long-term follow ups of the ex-US study): 64%
- efficacy in terms of induction of necrosis (head and neck cancer; patients that completed the treatment, daily dosing then resection): over 80%
- blood levels of M4N achieved [4]: up to 14,000 ng/ml
- solubility in dimethyl sulfoxide [5]: soluble

Structure (SMILES): CC(Cc1ccc(O)c(O)c1)C(C)Cc1ccc(O)c(O)c1 (centres unmarked) [NDGA, nordihydroguaiaretic acid]
- serum glucose [6]: reducing
- serum non-esterified fatty acids [6]: reducing
- serum triglyceride [6]: reducing
- tumor growth [7]: Some evidence of inhibition of tumor growth
- hypertension [8]: reducing hypertension
- breakdown of fAβ(1-42) (fAβ(1-42)): dose-dependently broke down
- breakdown of fAβ(1-40) (fAβ(1-40)): dose-dependently broke down
- β-amyloid fibrils (fAβ) formation (β-amyloid fibrils): inhibited

Structure (SMILES): C[C@H](Cc1ccc(OC(=O)CN(C)C)c(OC(=O)CN(C)C)c1)[C@@H](C)Cc1ccc(OC(=O)CN(C)C)c(OC(=O)CN(C)C)c1 [G4N, meso-1,4-bis[3,4-(dimethylaminoacetoxy)phenyl]-(2R,3S)-dimethylbutane]
- tumor growth [1]: some evidence of suppression of tumor growth
- water solubility (Solubility): water-soluble
